Measurements taken from ChEMBL document CHEMBL1126438, “DNA alkylation properties of the duocarmycins: (+)-duocarmycin A, epi-(+)-duocarmycin A, ent-()-duocarmycin A and epi,ent-()-duocarmycin A” (Bioorg Med Chem Lett, 1992).
≈ marks a conversion by molar mass, not a printed value.

Legend:
B16 = assay: In vitro evaluation for cytotoxicity against B16 melanoma.; type: functional, cell-based; conditions: Mus musculus
L1210 = assay: In vitro evaluation for cytotoxicity against L1210 cell line; type: functional, cell-based; conditions: Mus musculus
P388 = assay: In vitro evaluation for cytotoxicity against P388 murine leukemia cell line; type: functional, cell-based, Mus musculus
[1] = Mus musculus, P388, read-out: IC50

Compound	IC50 (B16)	IC50 (L1210)	IC50 (P388; p388)	IC50 (P388; [1])
COC(=O)[C@]1(C)N=C2C(=O)C=C3N(C(=O)c4cc5cc(OC)c(OC)c(OC)c5[nH]4)C[C@H]4C[C@@]34C2=C1O	0.2 ng/mL (≈ 0.394 nM)	0.1 ng/mL (≈ 0.197 nM)	0.002 ng/mL (≈ 0.00394 nM)	–
COC(=O)[C@]1(C)N=C2C(=O)C=C3N(C(=O)c4cc5cc(OC)c(OC)c(OC)c5[nH]4)C[C@@H]4C[C@]34C2=C1O	> 3 ng/mL	> 12 ng/mL	–	≥ 0.3 ng/mL
COC(=O)[C@@]1(C)N=C2C(=O)C=C3N(C(=O)c4cc5cc(OC)c(OC)c(OC)c5[nH]4)C[C@H]4C[C@@]34C2=C1O	0.8 ng/mL (≈ 1.58 nM)	0.8 ng/mL (≈ 1.58 nM)	–	0.007 ng/mL (≈ 0.0138 nM)
COC(=O)[C@@]1(C)N=C2C(=O)C=C3N(C(=O)c4cc5cc(OC)c(OC)c(OC)c5[nH]4)C[C@@H]4C[C@]34C2=C1O	> 3 ng/mL	> 11 ng/mL	–	≥ 0.3 ng/mL
